Reference: patent US20160122307A1, “PERHYDROQUINOXALINE DERIVATIVES” (DR. AUGUST WOLFF GMBH & CO. KG ARZNEIMITTEL, priority 2013, published 2016)
Where two headings read alike, the source gives them in different places.

Target: Human opiate κ receptors (Homo sapiens, UniProt P41145)
Test: κ opioid receptor functional assay, [35S]GTPγS binding (assay C)
Format: biochemical
Details: for activation at 1 µM: 0.5 h, read-out: % activation functional assay at 1 μM
[1] = read-out: EC50 (nM) [35S]GTPγS binding

Human opiate κ receptors, sequence (P41145 whole entry): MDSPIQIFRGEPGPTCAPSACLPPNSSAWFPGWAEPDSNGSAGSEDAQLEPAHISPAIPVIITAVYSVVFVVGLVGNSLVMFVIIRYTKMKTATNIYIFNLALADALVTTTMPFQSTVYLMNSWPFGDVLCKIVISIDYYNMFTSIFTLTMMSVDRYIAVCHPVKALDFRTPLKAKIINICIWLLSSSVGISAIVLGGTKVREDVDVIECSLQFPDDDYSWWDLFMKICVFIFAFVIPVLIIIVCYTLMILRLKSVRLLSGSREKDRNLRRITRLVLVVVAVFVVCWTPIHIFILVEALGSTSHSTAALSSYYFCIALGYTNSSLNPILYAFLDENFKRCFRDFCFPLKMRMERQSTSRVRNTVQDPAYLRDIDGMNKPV

SMILES	activation at 1 µM [%]	EC50 (GTPγS EC50 (nM)) [nM]	further results
COC(=O)COC(=O)N1CCN(C(=O)Cc2ccc(Cl)c(Cl)c2)[C@@H]2[C@@H](N3CC[C@H](O)C3)CCC[C@@H]21 [Example 106]	92	< 10	–
COC(=O)c1cccc(C(=O)N2CCN(C(=O)Cc3ccc(Cl)c(Cl)c3)C3C(N4CCCC4)CCCC32)c1 (racemic) [Example 86]	86	–	–
COC(=O)N1CCN(C(=O)Cc2cccc([N+](=O)[O-])c2)C2C(N3CCCC3)CCCC21 (racemic) [Example 3]	105	10 to 100	–
CCOC(=O)N1CCN(C(=O)Cc2ccc(Cl)c(Cl)c2)C2C(N3CCCC3)CCCC21 (racemic) [O, reference compound]	–	–	activation (% of control) at 1 μM: 88 % of control; EC50 [1]: 150 nM
CC(=O)OCC(=O)N1CCN(C(=O)Cc2ccc(Cl)c(Cl)c2)C2C(N3CCCC3)CCCC21 (racemic) [Example 58]	96	10 to 100	–
COC(=O)N1CCN(C(=O)Cc2ccc(F)c(Cl)c2)C2C(N3CCCC3)CCCC21 (racemic) [Example 20]	96	< 10	–
O=C(C1CCCN1)N1CCN(C(=O)Cc2ccc(Cl)c(Cl)c2)C2C(N3CCCC3)CCCC21 (racemic) [Example 80]	76	100 to 1000	–
COC(=O)N1CCN(C(=O)Cc2ccc(Cl)c(Cl)c2)[C@H]2[C@H](N3CCCC3)CCC[C@H]21 (single isomer, unassigned) [Reference compound A, reference compound]	51	–	–
COC(=O)N1CCN(C(=O)Cc2ccc(Cl)c(Cl)c2)C2C(N3CCC(O)C3)CCCC21 (stereo not shown) [Example 53]	–	< 10	% activation functional assay at 1 μM: 97%; activation (% of control) at 1 μM (1 µM): 97 % of control; EC50 (EC50 (nM) [35S]GTPγS binding): 6.1 nM
NC(=O)COC(=O)N1CCN(C(=O)Cc2ccc(Cl)c(Cl)c2)C2C(N3CCCC3)CCCC21 (racemic) [Example 68]	104	10 to 100	–
CN(C)C(=O)C(=O)N1CCN(C(=O)Cc2ccc(Cl)c(Cl)c2)[C@@H]2[C@@H](N3CCCC3)CCC[C@@H]21.Cl [Example 116]	–	–	% activation functional assay at 1 μM: 111%; EC50 (read-out: GTPγS EC50): 10 to 100 nM
COC(=O)N1CCN(C(=O)Cc2ccc3ccccc3c2)C2C(N3CCCC3)CCCC21 (racemic) [Example 10]	100	10 to 100	–
O=C(Cc1ccc(Cl)c(Cl)c1)N1CCN(Cc2cnc[nH]2)C2CCCC(N3CCCC3)C21 (stereo not shown) [AA, reference compound]	–	–	activation (% of control) at 1 μM: 89 % of control; EC50 [1]: 56 nM
NC(=O)CNC(=O)N1CCN(C(=O)Cc2ccc(Cl)c(Cl)c2)C2C(N3CCCC3)CCCC21 (racemic) [Example 76]	106	10 to 100	–
Cl.O=C(OCc1ccccc1)N1CCN(C(=O)Cc2ccc(Cl)c(Cl)c2)C2C(N3CCCC3)CCCC21 (stereo not shown) [Example 95]	–	–	% activation functional assay at 1 μM: 104%; EC50 (read-out: GTPγS EC50): < 10 nM
COC(=O)N1CCN(C(=O)Cc2ccc(C(F)(F)F)cc2)C2C1CCCC2N(C)C(C)C (racemic) [Example 14]	104	< 10	–
O=C(C1CCCC1)N1CCN(C(=O)Cc2ccc(Cl)c(Cl)c2)C2C(N3CCCC3)CCCC21 (racemic) [Example 51]	97	< 10	–
COC(=O)CC(=O)N1CCN(C(=O)Cc2ccc(Cl)c(Cl)c2)C2C(N3CCCC3)CCCC21 (stereo not shown) [P, reference compound]	–	–	activation (% of control) at 1 μM: 81 % of control; EC50 [1]: 220 nM
COC(=O)N1CCN(C(=O)Cc2ccc(Cl)c(Cl)c2)C2C1CCCC2N(C)C(C)C (racemic) [Example 13]	98	< 10	–
CCN(C)[C@H]1CCC[C@H]2[C@@H]1N(C(=O)Cc1ccc(Cl)c(Cl)c1)CCN2C(=O)OC [Example 91]	106	< 10	–
CC(C)NC(=O)N1CCN(C(=O)Cc2ccc(Cl)c(Cl)c2)[C@@H]2[C@@H](N3CCCC3)CCC[C@@H]21 [Example 99]	100	< 10	–
O=C(c1ccccc1)N1CCN(C(=O)Cc2ccc(Cl)c(Cl)c2)C2C(N3CCCC3)CCCC21 (stereo not shown) [L, reference compound]	–	–	activation (% of control) at 1 μM: 74 % of control
Cl.Cl.Cl.O=C(Cc1ccc(Cl)c(Cl)c1)N1CCN(c2cccnc2)C2CCCC(N3CCCC3)C21 (racemic) [Example 72]	–	–	% activation functional assay at 1 μM: 106%; EC50 (read-out: GTPγS EC50): < 10 nM
COC(=O)N1CCN(C(=O)Cc2ccc(Cl)cc2)C2C(N3CCCC3)CCCC21 (racemic) [Example 47]	101	< 10	–
O=C(O)COC(=O)N1CCN(C(=O)Cc2ccc(Cl)c(Cl)c2)C2C(N3CCCC3)CCCC21 (racemic) [Example 69]	101	10 to 100	–
CS(=O)(=O)N1CCN(C(=O)Cc2ccc(Cl)c(Cl)c2)C2C(N3CCC(O)C3)CCCC21.Cl (stereo not shown) [Example 121]	–	–	% activation functional assay at 1 μM: 106%; EC50 (read-out: GTPγS EC50): < 10 nM

SMILES	activation at 1 µM [%]	EC50 (GTPγS EC50 (nM)) [nM]	further results
CC(C)OC(=O)COC(=O)N1CCN(C(=O)Cc2ccc(Cl)c(Cl)c2)[C@@H]2[C@@H](N3CCCC3)CCC[C@@H]21 [Example 107]	104	< 10	–
O=C(O)CCC(=O)N1CCN(C(=O)Cc2ccc(Cl)c(Cl)c2)[C@H]2[C@H]1CCC[C@@H]2N1CCCC1 (racemic) [AE, reference compound]	–	–	activation (% of control) at 1 μM: 43 % of control; activation of the kappa opioid receptors at 1 μM: no or little activation; EC50 (EC50 (nM) [35S]GTPγS binding): > 1000 nM
COC(=O)CC(=O)N1CCN(C(=O)Cc2ccc(Cl)c(Cl)c2)C2C(N3CCCC3)CCCC21 (racemic) [Example 36]	93	< 10	activation (% of control) at 1 μM: 93 % of control; EC50 (EC50 (nM) [35S]GTPγS binding): 9.74 nM
COC(=O)CCC(=O)N1CCN(C(=O)Cc2ccc(Cl)c(Cl)c2)[C@H]2[C@H]1CCC[C@@H]2N1CCCC1 (racemic) [Q, reference compound]	–	–	EC50: 530 nM; activation (% of control) at 1 μM: 61 % of control
COC(=O)N1CCN(C(=O)Cc2ccc(F)c(Cl)c2)[C@@H]2[C@@H](N3CC[C@H](O)C3)CCC[C@@H]21 [Example 109]	110	< 10	–
COC(=O)N1CCN(C(=O)Cc2ccc3c(c2)CCCC3)C2C(N3CCCC3)CCCC21 (racemic) [Example 6]	97	10 to 100	–
COC(=O)C(=O)N1CCN(C(=O)Cc2ccc(Cl)c(Cl)c2)C2C(N3CCCC3)CCCC21 (racemic) [Example 65]	104	< 10	–
CS(=O)(=O)N1CCN(C(=O)Cc2ccc(C(F)(F)F)c(Cl)c2)[C@@H]2[C@@H](N3CC[C@H](O)C3)CCC[C@@H]21 [Example 124]	97	< 10	–
O=C(O)CC(=O)N1CCN(C(=O)Cc2ccc(Cl)c(Cl)c2)C2C(N3CCCC3)CCCC21 (racemic) [Example 37]	87	10 to 100	activation (% of control) at 1 μM: 87 % of control; EC50 (EC50 kappa opioid receptor activation): 22 nM
COC(=O)N1CCN(C(=O)Cc2cc(Cl)c3c(c2)OCCO3)C2C(N3CCCC3)CCCC21 (racemic) [Example 7]	101	10 to 100	–
COC(=O)N1CCN(C(=O)Cc2ccc(C(F)(F)F)c(Cl)c2)[C@@H]2[C@@H](N3CC[C@@H](O)C3)CCC[C@@H]21 [Example 113]	102	< 10	–
O=C(Cc1ccc(Cl)c(Cl)c1)N1CCN(Cc2cccnc2)[C@@H]2CCC[C@H](N3CCCC3)[C@H]21 (racemic) [Y, reference compound]	–	–	activation (% of control) at 1 μM: 96 % of control; EC50 (EC50 (nM) [35S]GTPγS binding): 34 nM
O=C(CO)N1CCN(C(=O)Cc2ccc(Cl)c(Cl)c2)C2C(N3CCCC3)CCCC21 (racemic) [Example 59]	109	10 to 100	–
O=C(C1COC1)N1CCN(C(=O)Cc2ccc(Cl)c(Cl)c2)C2C(N3CCCC3)CCCC21 (racemic) [Example 54]	104	10 to 100	–
O=C(Cc1ccc(Cl)c(Cl)c1)N1CCN(Cc2cccnc2)C2CCCC(N3CCCC3)C21 (racemic) [Example 48]	100	< 10	activation (% of control) at 1 μM: 100 % of control; EC50 (EC50 (nM) [35S]GTPγS binding): 4.99 nM
COC(=O)N1CCN(C(=O)Cc2ccc(F)c(Cl)c2)[C@@H]2[C@@H](N3CCCC3)CCC[C@@H]21 [Example 92]	105	10 to 100	–
COc1ccc(CN2CCN(C(=O)Cc3ccc(Cl)c(Cl)c3)C3C(N4CCCC4)CCCC32)cc1 (stereo not shown) [X, reference compound]	–	–	activation (% of control) at 1 μM: 91 % of control; EC50 [1]: 26 nM
COC(=O)N1CCN(C(=O)Cc2ccc(Cl)c(Cl)c2)[C@@H]2[C@@H](N3CC[C@H](O)C3)CCC[C@@H]21 [Example 97]	113	< 10	–
COC(=O)N1CCN(C(=O)Cc2ccc(Cl)c(F)c2)[C@@H]2[C@@H](N3CCCC3)CCC[C@@H]21 [Example 94]	103	10 to 100	–
COC(=O)N1CCN(C(=O)Cc2ccc(Cl)c(Cl)c2)C2C(N3CCC(O)C3)CCCC21 (stereo not shown) [Example 11]	92	10 to 100	activation (% of control) at 1 μM (1 µM): 92 % of control; EC50 (EC50 (nM) [35S]GTPγS binding): 11.7 nM
COC(=O)COC(=O)N1CCN(C(=O)Cc2ccc(Cl)c(Cl)c2)C2C(N3CCCC3)CCCC21 (racemic) [Example 67]	106	< 10	–
O=C(Cc1ccc(Cl)c(Cl)c1)N1CCN(Cc2cnc[nH]2)C2CCCC(N3CCCC3)C21 (racemic) [Example 49]	112	< 10	activation (% of control) at 1 μM: 112 % of control; EC50 (EC50 (nM) [35S]GTPγS binding): 6.65 nM
COC(=O)N1CCN(C(=O)Cc2cccc(Cl)c2)C2C(N3CCCC3)CCCC21 (racemic) [Example 46]	96	< 10	–
CN(C)S(=O)(=O)N1CCN(C(=O)Cc2ccc(Cl)c(Cl)c2)[C@@H]2[C@@H](N3CCCC3)CCC[C@@H]21 [Example 98]	105	< 10	–
COC(=O)N1CCN(C(=O)Cc2ccc(C(F)(F)F)c(Cl)c2)[C@@H]2[C@@H](N3CC[C@H](O)C3)CCC[C@@H]21 [Example 108]	100	< 10	–
